The source of these data is patent US20220383986A1, “Complex System for Contextual Spectrum Mask Generation Based on Quantitative Imaging” (The Board of Trustees of the University of Illinois, priority 2021, published 2022).

For test [1], the system named is CHO cells. Description: time-lapse SLIM recording of CHO cells with and without staurosporine. The settings on record: 1 μM staurosporine in medium, measured for 10 hours, 37° C. and 5% CO2. Type of test: cell-based, Chinese hamster.
Experimental: CHO cells were plated on a glass bottom 6-well plate for optimal confluency. In addition to NucBlue/NucGreen staining, 1 μM of staurosporine (apoptotic inducing reagent) solution was added to the culture medium. This potent reagent permeates cell membrane and disrupts protein kinase, cAMP, and lead to apoptosis in 4-6 hours. The cells were then measured by SLIM and epi-fluorescence microscopy. The cells were maintained in regular incubation condition (37° C. and 5% concentration of CO2) throughout the experiment. In addition, it is verified that the cells were not affected by necrosis and lytic cell death.
PICS on CHO cells and Evaluate the effect of lytic cell death: Before performing experiments on CHO cells, a preliminary study was conducted, as follows. Live cell cultures were prepared and split into the two groups. 1 μM of staurosporine was added into the medium of the experimental group, whereas the others were kept intact as control. Both control and experimental cells were measured with SLIM for 10 hours under regular incubation condition (37° C. and 5% concentration of CO2).
The subject of test [2] is CHO cells. The settings on record: 1 μM staurosporine added to culture medium; general description of the reagent; cited from earlier work.

Turning to `CN[C@@H]1C[C@H]2O[C@@](C)([C@@H]1OC)n1c3ccccc3c3c4c(c5c6ccccc6n2c5c31)C(=O)NC4` [staurosporine], the “cell characteristics in SLIM (QPI) images versus untreated control” value in test [1] was “cell volume decreased, and membrane ruptured or became detached”. Also, in test [2], the time to apoptosis was 4 to 6 h.
